In US20050107423A1, “Quinolone antibacterial agents” (priority 2003, published 2005):
In brackets after ≈: the same amount, converted by molar mass.

Experiments:
Test in all cases: Antibacterial assay, microtitration MIC (Test A)
Format in all cases: cell-based
S. pneumo SV-1 = conditions: Gram Positive Bacteria; strain SV-1; read-out: Minimum Inhibitory Concentrations S. pneumo SV-1
Description: (§1) The compounds of the present invention were tested against an assortment of Gram-negative and Gram-positive organisms using standard microtitration techniques (Cohen et. al., Antimicrob., 1985;28:766; Heifetz, et. al., Antimicrob., 1974;6:124). The results of the evaluation are shown in Tables 1A and B, wherein “-” means no data.

S pyogenes C203 = conditions: Gram Positive Bacteria; strain C203; read-out: Minimum Inhibitory Concentrations S pyogenes C203
Description: as §1

S. aureus UC-76 = conditions: Staphylococcus aureus, UC76, Gram Positive Bacteria; strain UC-76; read-out: Minimum Inhibitory Concentrations S. aureus UC-76
Description: as §1

E. faecalis MGH-2 = conditions: Enterococcus faecalis, MGH2, Gram Positive Bacteria; strain MGH-2; read-out: Minimum Inhibitory Concentrations E. faecalis MGH-2
Description: as §1

H. influenzae HI-3542 = conditions: Haemophilus influenzae, HI3542, Gram Negative Bacteria; strain HI-3542; read-out: Minimum Inhibitory Concentrations H. influenzae HI-3542
Description: as §1

M. catarrhalis BC-3531 = conditions: Moraxella catarrhalis, BC3531, Gram Negative Bacteria; strain BC-3531; read-out: Minimum Inhibitory Concentrations M. catarrhalis BC-3531
Description: as §1

E. coli EC-2549 = conditions: Escherichia coli, EC2549, Gram Negative Bacteria; strain EC-2549; read-out: Minimum Inhibitory Concentrations E. coli EC-2549
Description: as §1

MIC (S. pneumo SV-1) | MIC (S pyogenes C203) | MIC (S. aureus UC-76) | MIC (E. faecalis MGH-2) | MIC (H. influenzae HI-3542) | MIC (M. catarrhalis BC-3531) | MIC (E. coli EC-2549) | SMILES
0.06 µg/mL (≈ 0.154 µM) | 0.06 µg/mL (≈ 0.154 µM) | 0.004 µg/mL (≈ 0.0102 µM) | 0.06 µg/mL (≈ 0.154 µM) |  |  |  | Cc1c(N2C[C@@H](CO)[C@@H](CO)C2)c(F)cc2c(=O)c(C(=O)O)cn(C3CC3)c12 [drawing 405]
0.03 µg/mL (≈ 0.0742 µM) | 0.06 µg/mL (≈ 0.148 µM) | 0.004 µg/mL (≈ 0.00989 µM) | 0.125 µg/mL (≈ 0.309 µM) |  |  |  | COC[C@H]1CN(c2c(F)cc3c(=O)c(C(=O)O)cn(C4CC4)c3c2C)C[C@H]1CO [drawing 406]
0.25 µg/mL (≈ 0.597 µM) | 0.25 µg/mL (≈ 0.597 µM) | 0.03 µg/mL (≈ 0.0717 µM) | 0.5 µg/mL (≈ 1.19 µM) |  |  |  | COC[C@@H]1CN(c2c(F)cc3c(=O)c(C(=O)O)cn(C4CC4)c3c2C)C[C@@H]1COC [drawing 407]
0.03 µg/mL (≈ 0.0742 µM) | 0.06 µg/mL (≈ 0.148 µM) | 0.004 µg/mL (≈ 0.00989 µM) | 0.06 µg/mL (≈ 0.148 µM) |  |  |  | COC[C@@H]1CN(c2c(F)cc3c(=O)c(C(=O)O)cn(C4CC4)c3c2C)C[C@@H]1CO [drawing 408]
0.06 µg/mL (≈ 0.143 µM) | 0.125 µg/mL (≈ 0.299 µM) | 0.004 µg/mL (≈ 0.00956 µM) | 0.125 µg/mL (≈ 0.299 µM) |  |  |  | CCOC[C@@H]1CN(c2c(F)cc3c(=O)c(C(=O)O)cn(C4CC4)c3c2C)C[C@@H]1CO [drawing 409]
0.06 µg/mL (≈ 0.139 µM) | 0.125 µg/mL (≈ 0.289 µM) | 0.004 µg/mL (≈ 0.00925 µM) | 0.125 µg/mL (≈ 0.289 µM) |  |  |  | CCCOC[C@@H]1CN(c2c(F)cc3c(=O)c(C(=O)O)cn(C4CC4)c3c2C)C[C@@H]1CO [drawing 410]
0.06 µg/mL (≈ 0.126 µM) | 0.125 µg/mL (≈ 0.263 µM) | 0.015 µg/mL (≈ 0.0316 µM) | 0.125 µg/mL (≈ 0.263 µM) |  |  |  | CC(=O)OC[C@@H]1CN(c2c(F)cc3c(=O)c(C(=O)O)cn(C4CC4)c3c2C)C[C@@H]1COC(C)=O [drawing 411]
0.06 µg/mL (≈ 0.119 µM) | 0.125 µg/mL (≈ 0.249 µM) | 0.03 µg/mL (≈ 0.0597 µM) | 0.5 µg/mL (≈ 0.995 µM) |  |  |  | CCC(=O)OC[C@@H]1CN(c2c(F)cc3c(=O)c(C(=O)O)cn(C4CC4)c3c2C)C[C@@H]1COC(=O)CC [drawing 412]
0.125 µg/mL (≈ 0.236 µM) | 0.25 µg/mL (≈ 0.471 µM) | 1 µg/mL (≈ 1.88 µM) | 4 µg/mL (≈ 7.54 µM) |  |  |  | Cc1c(N2C[C@@H](COC(=O)C(C)C)[C@@H](COC(=O)C(C)C)C2)c(F)cc2c(=O)c(C(=O)O)cn(C3CC3)c12 [drawing 413]
0.03 µg/mL (≈ 0.0717 µM) | 0.03 µg/mL (≈ 0.0717 µM) | 0.002 µg/mL (≈ 0.00478 µM) | 0.06 µg/mL (≈ 0.143 µM) |  |  |  | Cc1c(N2C[C@@H](CCO)[C@@H](CCO)C2)c(F)cc2c(=O)c(C(=O)O)cn(C3CC3)c12 [drawing 414]
0.06 µg/mL (≈ 0.138 µM) | 0.06 µg/mL (≈ 0.138 µM) | 0.004 µg/mL (≈ 0.00921 µM) | 0.125 µg/mL (≈ 0.288 µM) |  |  |  | COc1c(N2C[C@@H](CCO)[C@@H](CCO)C2)c(F)cc2c(=O)c(C(=O)O)cn(C3CC3)c12 [drawing 415]
0.125 µg/mL (≈ 0.266 µM) | 0.125 µg/mL (≈ 0.266 µM) | 0.008 µg/mL (≈ 0.017 µM) | 0.125 µg/mL (≈ 0.266 µM) |  |  |  | O=C(O)c1cn(C2CC2)c2c(OC(F)F)c(N3C[C@@H](CCO)[C@@H](CCO)C3)c(F)cc2c1=O [drawing 416]
0.03 µg/mL (≈ 0.0772 µM) | 0.06 µg/mL (≈ 0.154 µM) | 0.002 µg/mL (≈ 0.00515 µM) | 0.06 µg/mL (≈ 0.154 µM) |  |  |  | Cc1c(N2CC(CO)C(C)(C)C2)c(F)cc2c(=O)c(C(=O)O)cn(C3CC3)c12 (stereo not drawn) [drawing 427]
0.06 µg/mL (≈ 0.155 µM) | 0.06 µg/mL (≈ 0.155 µM) | 0.004 µg/mL (≈ 0.0104 µM) | 0.06 µg/mL (≈ 0.155 µM) |  |  |  | Cc1c(N2CC(CO)C3(CC3)C2)c(F)cc2c(=O)c(C(=O)O)cn(C3CC3)c12 (stereo not drawn) [drawing 428]
0.125 µg/mL (≈ 0.3 µM) | 0.125 µg/mL (≈ 0.3 µM) | 0.008 µg/mL (≈ 0.0192 µM) | 0.125 µg/mL (≈ 0.3 µM) |  |  |  | Cc1c(N2CC(C(O)CO)C3(CC3)C2)c(F)cc2c(=O)c(C(=O)O)cn(C3CC3)c12 (stereo not drawn) [drawing 431]
 |  |  |  | 0.008 µg/mL (≈ 0.0199 µM) | 0.03 µg/mL (≈ 0.0745 µM) | 0.125 µg/mL (≈ 0.311 µM) | Cc1c(N2C[C@@H]3C[C@@H](O)[C@@H](O)[C@@H]3C2)c(F)cc2c(=O)c(C(=O)O)cn(C3CC3)c12 [drawing 446]
 |  |  |  | 0.03 µg/mL (≈ 0.066 µM) | 0.06 µg/mL (≈ 0.132 µM) | 0.5 µg/mL (≈ 1.1 µM) | O=C(O)c1cn(C2CC2)c2c(OC(F)F)c(N3CC4CC(O)C(O)C4C3)c(F)cc2c1=O (stereo not drawn) [drawing 448]
 |  |  |  | 0.06 µg/mL (≈ 0.139 µM) | 0.06 µg/mL (≈ 0.139 µM) | 0.5 µg/mL (≈ 1.16 µM) | COc1c(N2C[C@@H]3CC[C@@](O)(CO)[C@@H]3C2)c(F)cc2c(=O)c(C(=O)O)cn(C3CC3)c12 [drawing 449]
 |  |  |  | 0.015 µg/mL (≈ 0.036 µM) | 0.03 µg/mL (≈ 0.072 µM) | 0.125 µg/mL (≈ 0.3 µM) | Cc1c(N2C[C@@H]3CC[C@@](O)(CO)[C@@H]3C2)c(F)cc2c(=O)c(C(=O)O)cn(C3CC3)c12 [drawing 450]
 |  |  |  | 0.125 µg/mL (≈ 0.28 µM) | 0.25 µg/mL (≈ 0.56 µM) | 2 µg/mL (≈ 4.48 µM) | COc1c(N2C[C@]3(CO)CCC[C@]3(CO)C2)c(F)cc2c(=O)c(C(=O)O)cn(C3CC3)c12 [drawing 451]
 |  |  |  | 0.015 µg/mL (≈ 0.0348 µM) | 0.03 µg/mL (≈ 0.0697 µM) | 0.125 µg/mL (≈ 0.29 µM) | Cc1c(N2CC3(CO)CCCC3(CO)C2)c(F)cc2c(=O)c(C(=O)O)cn(C3CC3)c12 (stereo not drawn) [drawing 452]
